Key:
[1] = non-clinical tests, Non Patent Literature 5; cited from earlier work
p-gp or Bcrp = conditions: Non Patent Literature 5; cited from earlier work
brain metastatic cancer = conditions: clinical tests, Non Patent Literatures 6-9; cited from earlier work
Ba/F3-HER2insYVMA cells = Ba/F3-HER2insYVMA cells (Homo sapiens, UniProt P04626, DUP772-775, cells depend on it); test: Growth inhibitory activity against HER2 exon 20 insertion mutant expressing cell line; assay type: cell-based, mouse; conditions: 3 days, CellTiter-Glo 2.0, read-out: HER2ex20insYVMA cell growth inhibitory activity IC50 value
Method: Growth inhibitory activity against the HER2 exon 20 insertion mutant was measured using Ba/F3 cells that were a mouse B lymphocyte precursor cell line, into which a human HER2 exon 20 insertion mutant gene had been introduced. The Ba/F3 cells were maintained in an RPMI-1640 medium (Thermo Fisher Scientific) supplemented with 10% fetal bovine serum (FBS), 100 U/mL penicillin, 100 μg/mL streptomycin (Thermo Fisher Scientific) and 1 ng/mL mouse interleukin-3 (mIL-3) (CST).
Upon evaluation of cell growth inhibitory activity, the Ba/F3-HER2insYVMA cells were suspended in an RPMI-1640 medium supplemented with 10% FBS, 100 U/mL penicillin, and 100 μg/mL streptomycin. The cell suspension was seeded in each well of a 96-well flat-bottom microplate, and was then cultured in a 5% carbon dioxide gas-containing culture vessel at 37° C. for 1 day. The compound of the present invention was dissolved in DMSO, and was then diluted with DMSO or the medium used in the suspension of the cells. The obtained solution was then added to each well of the culture plate, so that the final concentration of DMSO became 0.2%. The obtained mixture was further cultured in the 5% carbon dioxide gas-containing culture vessel at 37° C. for 3 days. After completion of the culture for 3 days in the presence of the compound, the cells were counted using CellTiter-Glo 2.0 (manufactured by Promega), and the growth inhibition percentage was then calculated according to the following equation. […] Growth inhibitory percentage (%)=(C−T)/(C)×100 T: Emission intensity from the well to which the test compound was added C: Emission intensity from the well to which the test compound was not added

SK-BR-3 cells = test: Growth inhibitory activity against HER2 expressing cell line SK-BR-3; assay type: cell-based; conditions: Homo sapiens, SK-BR-3, 72 h; 3 days, CellTiter-Glo 2.0
Method: SK-BR-3 cells as a HER2 overexpressing human breast cancer cell line were suspended in a McCoy's 5a medium (manufactured by Life Technologies) supplemented with 10% fetal bovine serum. The cell suspension was seeded in each well of a 384-well flat-bottom microplate, and was then cultured in a 5% carbon dioxide gas-containing culture vessel at 37° C. for 1 day. Thereafter, the compound of the present invention was dissolved in DMSO, and the compound was diluted to 500 times the final concentration in DMSO. The compound in the DMSO solution was diluted with DMSO solution or the medium used in the suspension of the cells, and the obtained solution was then added to each well of the culture plate so that the final concentration of DMSO was 0.2%. The obtained mixture was further cultured in the 5% carbon dioxide gas-containing culture vessel at 37° C. for 3 days. After completion of the culture for 3 days in the presence of the compound, the cells were counted using CellTiter-Glo 2.0 (manufactured by Promega), and the growth inhibition percentage was then calculated according to the following equation. […] Growth inhibitory percentage (%)=(C−T)/(C)×100 T: Emission intensity from the well to which the test compound was added C: Emission intensity from the well to which the test compound was not added

[2] = target: HER2 exon 20 insertion mutant (HER2ex20insYVMA, A775_G776insYVMA) (Homo sapiens, UniProt P04626, DUP772-775); test: Inhibitory action (in vitro) against HER2 exon 20 insertion mutant phosphorylation activity; assay type: biochemical; conditions: 30 min pre-incubation, ATP 200 μM, 25° C. 220 minutes
Source text: In order to determine conditions for a method of measuring the in vitro inhibitory activity of a compound against HER2 exon 20 insertion mutant phosphorylation activity, as in the case of HER2, ProfilerPro Peptide 22 was used as a substrate. A purified recombinant human HER2 exon 20 insertion mutant (A775_G776insYVMA) protein is shown in SEQ ID NO: 7, and was purchased from SignalChem. Upon the measurement of the inhibitory activity of the compound, first, the compound of the present invention was diluted stepwise with dimethyl sulfoxide (DMSO). Subsequently, the HER2 exon 20 insertion mutant protein and the compound of the present invention in DMSO solution (final concentration of DMSO: 5%) were added into a buffer for the kinase reaction (13.5 mM Tris (pH 7.5), 2 mM dithiothreitol, and 0.009% Tween 20), and the obtained mixture was then pre-incubated at 25° C. for 30 minutes. Thereafter, the substrate peptide (final concentration: 1 μM), manganese chloride (final concentration: 25 mM), magnesium chloride (final concentration: 20 mM), and ATP (final concentration: 200 μM) were added into the reaction mixture, and the thus obtained mixture was then incubated at 25° C. for 220 minutes, so that the kinase reaction was carried out. To the reaction solution, EDTA was added to a final concentration of 30 mM, so as to terminate the reaction. Finally, using LabChip (registered trademark) EZ Reader II (PerkinElmer), an unphosphorylated substrate peptide (S) and a phosphorylated peptide (P) were separated and detected according to microchannel capillary electrophoresis.

[3] = Evaluation of oral absorbability; assay type: in vivo, BALB/cA mice; conditions: mouse; plasma, oral 50 mg/kg/day, BALB/cA mice
Method: The compound of the present invention was suspended or dissolved in 0.5% HPMC aqueous solution and 0.1 N hydrochloric acid, and the obtained suspension or solution was orally administered to BALB/cA mice (CLEA Japan, Inc.) at a dose of 50 mg/kg/day. At 0.5, 1, 2, 4 and 6 hours after completion of the oral administration, blood was collected from the facial vein over time, so as to obtain plasma. The concentration of the compound in the obtained plasma was measured by LC-MS/MS, and the oral absorbability of the present compound was evaluated.

HER2 = target: T1, HER2 (Homo sapiens, UniProt P04626); test: Inhibitory effect (in vitro) on HER2 phosphorylation activity; assay type: biochemical; conditions: recombinant human HER2, ATP 5 μM, 25° C. 30 minutes
T1 construct: purchased Carna Biosciences, Inc
Source text: In order to determine conditions for a method of measuring the in vitro inhibitory activity of a compound against HER2 phosphorylation activity, based on the report regarding a HER2 kinase reaction using, as a substrate, a peptide having the same sequence (5-FAM-[…]-CONH2) as that of ProfilerPro Peptide 22 of PerkinElmer (Xie H et al., PLoS One. 2011; 6(7): e21487), ProfilerPro Peptide 22 was used as a substrate. A purified recombinant human HER2 protein used in the present test was purchased from Carna Biosciences, Inc. Upon the measurement of the inhibitory activity of the compound, first, the compound of the present invention was diluted stepwise with dimethyl sulfoxide (DMSO). […] To the reaction solution, EDTA was added to a final concentration of 30 mM, so as to terminate the reaction. Finally, using LabChip (registered trademark) EZ Reader II (PerkinElmer), an unphosphorylated substrate peptide (S) and a phosphorylated peptide (P) were separated and detected according to microchannel capillary electrophoresis.

NCI-N87 cells = test: Growth inhibitory activity against HER2 expressing cell line NCI-N87; assay type: cell-based; conditions: Homo sapiens, NCI-N87, 72 h; 3 days, CellTiter-Glo 2.0
Method: NCI-N87 cells as a HER2 overexpressing human stomach cancer cell line (American Type Culture Collection, Cat No. ATCC (registered trademark) CRL-5822) were suspended in an RPMI640 medium (Wako Pure Chemical Industries, Ltd.) supplemented with 10% fetal bovine serum. Subsequently, the cell suspension was seeded in each well of a 96-well flat-bottom microplate, and was then cultured in a 5% carbon dioxide gas-containing culture vessel at 37° C. for 1 day. Thereafter, the compound of the present invention was dissolved in DMSO, and the compound was diluted to 1000 times the final concentration in DMSO. The compound in the DMSO solution was diluted with the medium used in the suspension of the cells, and the obtained solution was then added to each well of the culture plate, so that the final concentration of DMSO became 0.1%. Regarding a control well, DMSO was diluted with the medium used in the suspension of the cells, and the obtained solution was then added to each well of the culture plate, so that the final concentration of DMSO became 0.1%. After addition of a drug solution, the obtained mixture was further cultured in the 5% carbon dioxide gas-containing culture vessel at 37° C. for 3 days. After completion of the culture for 3 days in the presence of the compound, the cells were counted using CellTiter-Glo 2.0 (manufactured by Promega) in accordance with the protocols recommended by Promega. The growth inhibition percentage was calculated according to the following equation. […] Growth inhibitory percentage (%)=(C−T)/(C)×100 T: Emission intensity from the well to which the test compound was added C: Emission intensity from the well to which the test compound was not added

Chain of Ba/F3-HER2insYVMA cells (P04626 with tags, fused parts or gaps DUP772-775): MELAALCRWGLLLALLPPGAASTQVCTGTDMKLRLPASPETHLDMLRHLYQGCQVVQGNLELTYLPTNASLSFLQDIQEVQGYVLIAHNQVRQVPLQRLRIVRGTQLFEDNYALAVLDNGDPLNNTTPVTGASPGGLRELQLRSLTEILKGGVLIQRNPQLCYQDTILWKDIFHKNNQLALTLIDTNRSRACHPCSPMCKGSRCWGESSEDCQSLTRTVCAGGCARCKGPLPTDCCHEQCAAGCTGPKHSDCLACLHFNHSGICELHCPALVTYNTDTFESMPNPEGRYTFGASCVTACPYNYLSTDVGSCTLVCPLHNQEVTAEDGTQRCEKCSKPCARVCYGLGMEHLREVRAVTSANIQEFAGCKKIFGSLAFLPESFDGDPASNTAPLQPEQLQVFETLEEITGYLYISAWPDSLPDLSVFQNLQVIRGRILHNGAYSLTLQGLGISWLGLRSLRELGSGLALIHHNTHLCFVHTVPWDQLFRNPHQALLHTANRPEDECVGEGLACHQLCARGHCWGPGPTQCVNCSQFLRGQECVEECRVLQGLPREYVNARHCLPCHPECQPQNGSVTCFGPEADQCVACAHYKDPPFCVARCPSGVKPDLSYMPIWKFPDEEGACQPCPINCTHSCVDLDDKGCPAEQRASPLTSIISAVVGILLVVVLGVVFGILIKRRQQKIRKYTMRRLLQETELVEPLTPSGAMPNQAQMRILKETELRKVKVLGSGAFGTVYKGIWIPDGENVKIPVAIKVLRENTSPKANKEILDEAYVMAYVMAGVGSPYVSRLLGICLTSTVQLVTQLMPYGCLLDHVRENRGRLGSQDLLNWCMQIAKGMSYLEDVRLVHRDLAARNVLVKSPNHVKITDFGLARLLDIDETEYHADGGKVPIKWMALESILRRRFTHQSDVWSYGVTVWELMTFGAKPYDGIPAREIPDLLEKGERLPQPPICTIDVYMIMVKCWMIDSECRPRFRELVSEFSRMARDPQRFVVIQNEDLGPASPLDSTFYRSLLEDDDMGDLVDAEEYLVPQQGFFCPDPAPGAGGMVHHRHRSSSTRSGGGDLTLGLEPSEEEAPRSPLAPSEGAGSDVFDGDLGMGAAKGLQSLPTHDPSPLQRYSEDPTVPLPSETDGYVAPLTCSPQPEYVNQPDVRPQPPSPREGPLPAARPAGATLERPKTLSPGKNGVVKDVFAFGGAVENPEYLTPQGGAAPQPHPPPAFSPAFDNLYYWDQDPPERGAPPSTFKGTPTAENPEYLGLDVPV
Chain of HER2 exon 20 insertion mutant (HER2ex20insYVMA, A775_G776insYVMA) (P04626 with tags, fused parts or gaps DUP772-775): as above
T1 sequence (P04626 23-1255): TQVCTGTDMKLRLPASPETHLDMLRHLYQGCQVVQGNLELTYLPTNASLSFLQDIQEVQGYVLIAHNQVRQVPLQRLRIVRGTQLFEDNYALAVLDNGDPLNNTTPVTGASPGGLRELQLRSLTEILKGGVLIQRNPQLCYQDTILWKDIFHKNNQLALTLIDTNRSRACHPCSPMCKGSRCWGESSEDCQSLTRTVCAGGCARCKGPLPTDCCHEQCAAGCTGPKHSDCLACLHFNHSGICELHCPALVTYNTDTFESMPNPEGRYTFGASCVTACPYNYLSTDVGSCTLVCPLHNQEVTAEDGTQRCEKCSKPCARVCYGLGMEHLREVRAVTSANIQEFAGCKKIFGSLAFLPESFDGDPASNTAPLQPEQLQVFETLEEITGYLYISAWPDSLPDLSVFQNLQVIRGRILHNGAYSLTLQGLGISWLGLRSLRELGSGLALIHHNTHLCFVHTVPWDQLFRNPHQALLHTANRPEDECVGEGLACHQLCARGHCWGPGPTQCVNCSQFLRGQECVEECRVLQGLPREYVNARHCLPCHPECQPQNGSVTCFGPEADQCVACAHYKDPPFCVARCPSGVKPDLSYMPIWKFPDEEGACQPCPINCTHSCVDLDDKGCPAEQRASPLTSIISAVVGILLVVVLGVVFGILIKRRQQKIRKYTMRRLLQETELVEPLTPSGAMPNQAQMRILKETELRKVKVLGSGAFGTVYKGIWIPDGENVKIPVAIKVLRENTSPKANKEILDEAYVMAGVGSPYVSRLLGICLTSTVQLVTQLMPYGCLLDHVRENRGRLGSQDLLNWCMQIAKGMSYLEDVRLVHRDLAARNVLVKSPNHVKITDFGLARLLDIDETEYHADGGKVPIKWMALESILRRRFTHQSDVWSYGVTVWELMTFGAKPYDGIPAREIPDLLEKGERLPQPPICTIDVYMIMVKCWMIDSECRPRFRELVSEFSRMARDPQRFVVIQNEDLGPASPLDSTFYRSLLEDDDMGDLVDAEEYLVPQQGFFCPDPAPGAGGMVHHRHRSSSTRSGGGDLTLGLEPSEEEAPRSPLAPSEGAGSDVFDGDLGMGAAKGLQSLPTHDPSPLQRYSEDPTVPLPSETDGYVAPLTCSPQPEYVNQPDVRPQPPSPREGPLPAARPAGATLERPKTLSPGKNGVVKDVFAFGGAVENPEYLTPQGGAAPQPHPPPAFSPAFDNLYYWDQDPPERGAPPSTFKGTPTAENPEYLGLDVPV

Row | GI50 (Ba/F3-HER2insYVMA cells) [nM] | IC50 (SK-BR-3 cells) [nM] | IC50 [2] [nM] | AUC(0-t) [3] [µM·h] | IC50 (HER2) [nM] | SMILES | brain penetration properties [1] | substrate of p-gp or Bcrp (p-gp or Bcrp) | effects against brain metastatic cancer (brain metastatic cancer) | IC50 (NCI-N87 cells) [nM]
1 | – | – | – | – | – | CCOc1cc2ncc(C#N)c(Nc3ccc(OCc4ccccn4)c(Cl)c3)c2cc1NC(=O)/C=C/CN(C)C [Neratinib] | limited | substrates of p-gp or Bcrp | sufficient effects of these agents could not be obtained | –
2 | 40 | 12 | 0.39 | 15 | 4.9 | C=CC(=O)N1C[C@H](n2c(C#CC)c(C(=O)N[C@H](C)c3ccc(F)cc3F)c3c(N)ncnc32)C[C@@H]1C [Example 7, 7-((3R,5S)-1-acryloyl-5-methylpyrrolidin-3-yl)-4-amino-N—((R)-1-(2,4-difluorophenyl)ethyl)-6-(prop-1-yn-1-yl)-7H-pyrrolo[2,3-d]pyrimidine-5-carboxamide] | – | – | – | 11.1
3 | – | – | – | – | – | CS(=O)(=O)CCNCc1ccc(-c2ccc3ncnc(Nc4ccc(OCc5cccc(F)c5)c(Cl)c4)c3c2)o1 [Lapatinib] | limited | substrates of p-gp or Bcrp | sufficient effects of these agents could not be obtained | –

From patent publication US11078207B2, “Substituted pyrrolo[2,3-d]pyrimidines as HER2 inhibitors” (TAIHO PHARMACEUTICAL CO., LTD., priority 2019, dated 2021)
